Assays:
[1] = biological target: IL-17A(FLAG-Tagged): IL-17RA(His-Tagged) (Homo sapiens, UniProt Q16552, K93Q); test: IL-17A(FLAG-tagged):IL-17RA(His-tagged) binding disruption Eu-HTRF assay, Protocol 1; conditions: FLAG tagged IL-17A at 2× final concentration (2.5 nM); simple average if tested more than once
Text: IL-17A(FLAG-Tagged): IL-17RA(His-Tagged) Binding Disruption Eu-HTRF Assay
An antibody directed against the FLAG tag of IL-17A (SEQ ID NO:1) is labeled with the HTRF donor chromophore (Europium-cryptate). IL-17A is present as a dimer that is “locked into” this quaternary structure due to the formation of loop-spanning […] disulfide bridges. The construct of IL-17RA used in the assay excludes the outer-membrane portion of the receptor and is fused to a C-terminal 10×His tag (SEQ ID NO:2). An antibody directed against the His tag of the IL-17RA chimera is labeled with the HTRF acceptor chromophore (“D2”). The fluorescence-resonance energy transfer (FRET) depends on the vicinity of the donor chromophore to the acceptor, and interruption of the binding between the IL-17A and IL-17RA causes the reduction/loss of FRET. Therefore, this assay allows to evaluate the compound effect on the binding IL-17A and IL-17RA by monitoring the fluorescence intensity of donor vs acceptor. The assay was run using either Protocol 1 or Protocol 2 described below.
Protocol 1: 40 nL of 2-fold serial diluted compound solution for total 22 dilution points is added into each well of a 1536-well, white, low-volume, non-binding plate (Greiner #782904), then 2 μl of FLAG tagged IL-17A at 2× final concentration (2.5 nM) in solution of PBS+0.01% Triton-X100 is added to each well. The assay plate is briefly centrifuged then incubated for 1 h at rt. A mixed solution is prepared containing 2×5 nM 10HIS×IL-17RA, 2×2.5 nM Eu-anti-FLAG (CISBIO), 2×5 nM D2-anti-HIS (CISBIO) in PBS+0.01% Triton-X100+200 mM Potassium Fluoride (Sigma 60238) and […] of mix is added to each well of the assay plate. The plate is briefly centrifuged then incubated for 2 h at rt. The HTRF intensities at the wavelength of donor (620 nm) and acceptor (665 nm) are measured using BMG Pherastar. The ratio between intensities at two wavelengths is calculated and plotted against the compound concentration and the data is fitted to a one-site competition model to yield IC50 of the compound.

[2] = system: IL-17A-induced G-CSF production in human normal keratinocyte (NHK); test: NHK assay: IL-17A-induced G-CSF production in normal human keratinocytes; type: cell-based; conditions: IL-17A 5 ng/mL, 24 h at 37° C., G-CSF by HTRF, simple average if tested more than once
Procedure: IL-17A acts directly on keratinocytes through binding to dimeric receptor IL-17RA/RC and drives the production of a number of inflammatory mediators known to be elevated in psoriasis lesional tissue. IL-17A small molecule inhibitors that block the IL-17A to interact with IL-17R would inhibit the IL-17A signaling in its targeted cells such as keratinocytes. The compound functional activity is evaluated for its impact on IL-17A-induced G-CSF production in human normal keratinocyte (NHK).
Adult normal human keratinocytes are cultured in keratinocyte growth medium (Lonza) in a flask till reaching ˜90% confluence, then cells are transferred to a 384-well plate at density of 3000-4000 cell/well. Recombinant human IL-17A (Gibco PHC9174) is pre-incubated with titrated compound or DMSO for 1 h at rt then added to the cell culture plate. The final concentration of IL-17A is 5 ng/mL and DMSO is 0.2%, in the culture containing 5% FBS. Cells are cultured/treated for 24 h at 37° C. Supernatants are collected and G-CSF production is measured through HTRF technology using Human G-CSF Kit (CisBio). G-CSF concentration was extrapolated from the standard curve and IC50 is determined using GraphPad Prism. Cell viability is also evaluated using CellTiter-Glo kit (Promega) and effect of compound on cell viability is compared to DMSO control.

UniProt Q16552, sequence (Q16552 with tags, fused parts or gaps K93Q): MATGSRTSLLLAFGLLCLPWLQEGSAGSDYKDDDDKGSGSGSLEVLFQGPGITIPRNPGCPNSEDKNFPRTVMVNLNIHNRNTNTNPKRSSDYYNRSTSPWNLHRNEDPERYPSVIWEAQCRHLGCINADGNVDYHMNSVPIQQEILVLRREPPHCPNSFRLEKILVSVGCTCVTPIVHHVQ

SMILES | IC50 [1] [µM] | IC50 ([2]; Homo sapiens, Keratinocyte) [µM] | IC50 [2] [µM]
C[C@H]1CN(Cc2cnn3cc([C@@H](NC(=O)c4nonc4C4CC4)C4CCC(F)(F)CC4)nc3c2)C(=O)N1 [Example 4, 4-Cyclopropyl-N—((S)—(4,4-difluorocyclohexyl)(7-(((S)-4-methyl-2-oxoimidazolidin-1-yl)methyl)imidazo[1,2-b]pyridazin-2-yl)methyl)-1,2,5-oxadiazole-3-carboxamide] | < 4 | < 4 | –
Cc1nonc1C(=O)N[C@H](c1cn2ncc([C@@H](C3CC3)N3C[C@@H](C(C)C)NC3=O)cc2n1)C1CCC(F)(F)CC1 [Example 18, N—[(S)—[7-[(R)-Cyclopropyl-[(4R)-4-isopropyl-2-oxo-imidazolidin-1-yl]methyl]imidazo[1,2-b]pyridazin-2-yl]-(4,4-difluorocyclohexyl)methyl]-4-methyl-1,2,5-oxadiazole-3-carboxamide] | < 4 | < 4 | –
COC[C@H](c1cnn2cc([C@H](COC(C)(C)C(F)(F)F)NC(=O)c3nonc3C3CC3)nc2c1)N1C[C@@H](C(F)(F)F)NC1=O [Example 10] | < 4 | < 4 | –
Cc1nonc1C(=O)N[C@H](c1cn2ncc([C@@H](C3CC3)N3CC(CC(F)(F)F)NC3=O)cc2n1)C1CCC(F)(F)CC1 (single isomer, unassigned) [Example 20, N—((S)-(7-((R)-Cyclopropyl((S*)-2-oxo-4-(2,2,2-trifluoroethyl)imidazolidin-1-yl)methyl)imidazo[1,2-b]pyridazin-2-yl)(4,4-difluorocyclohexyl)methyl)-4-methyl-1,2,5-oxadiazole-3-carboxamide] | < 4 | – | < 4
[2H]C([2H])([2H])C([2H])([2H])n1nccc1C(=O)N[C@@H](COC(C)(C)C(F)(F)F)c1cn2ncc([C@@H](COC)N3C[C@@H](C(F)(F)F)NC3=O)cc2n1 [Example 12] | < 4 | < 4 | –
CC(C)n1nccc1C(=O)N[C@H](c1cn2ncc(CN3C[C@H](C)NC3=O)cc2n1)C1CCC(F)(F)CC1 [Example 5, N—((S)—(4,4-Difluorocyclohexyl)(7-(((S)-4-methyl-2-oxoimidazolidin-1-yl)methyl)imidazo[1,2-b]pyridazin-2-yl)methyl)-1-isopropyl-1H-pyrazole-5-carboxamide] | < 4 | > 10 | –
Cc1nonc1C(=O)N[C@H](c1cn2ncc([C@@H](C3CC3)N3C[C@@H](C4CC4)NC3=O)cc2n1)C1CCC(F)(F)CC1 [Example 17, N—[(S)—[7-[(R)-Cyclopropyl-[(4R)-4-cyclopropyl-2-oxo-imidazolidin-1-yl]methyl]imidazo[1,2-b]pyridazin-2-yl]-(4,4-difluorocyclohexyl)methyl]-4-methyl-1,2,5-oxadiazole-3-carboxamide] | < 4 | < 4 | –
O=C(N[C@H](c1cn2ncc(CN3CCNC3=O)cc2n1)C1CCC(F)(F)CC1)c1nonc1C1CC1 [Example 2, (S)-4-Cyclopropyl-N-((4,4-difluorocyclohexyl)(7-((2-oxoimidazolidin-1-yl)methyl)imidazo[1,2-b]pyridazin-2-yl)methyl)-1,2,5-oxadiazole-3-carboxamide] | < 4 | < 4 | –
C[C@@H]1CN(Cc2cnn3cc([C@@H](NC(=O)c4nonc4C4CC4)C4CCC(F)(F)CC4)nc3c2)C(=O)N1 [Example 6, 4-Cyclopropyl-N—((S)—(4,4-difluorocyclohexyl)(7-(((R)-4-methyl-2-oxoimidazolidin-1-yl)methyl)imidazo[1,2-b]pyridazin-2-yl)methyl)-1,2,5-oxadiazole-3-carboxamide] | < 4 | < 4 | –
CC(C)n1nccc1C(=O)N[C@H](c1cn2ncc(CN3CCNC3=O)cc2n1)C1CCC(F)(F)CC1 [Example 3, (S)—N-((4,4-Difluorocyclohexyl)(7-((2-oxoimidazolidin-1-yl)methyl)imidazo[1,2-b]pyridazin-2-yl)methyl)-1-isopropyl-1H-pyrazole-5-carboxamide] | < 4 | < 4 | –
COC[C@H](c1cnn2cc([C@H](COC(C)(C)C(F)(F)F)NC(=O)c3ccnn3C(C)C)nc2c1)N1C[C@@H](C(F)(F)F)NC1=O [Example 11] | < 4 | < 4 | –
O=C(N[C@H](c1cn2ncc(CN3C(=O)N[C@H]4CC(F)(F)C[C@H]43)cc2n1)C1CCC(F)(F)CC1)c1nonc1C1CC1 (single isomer, unassigned) [Example 8, 4-Cyclopropyl-N—((S)-(7-(((3aS*,6aR*)-5,5-difluoro-2-oxohexahydrocyclopenta[d]imidazol-1(2H)-yl)methyl)imidazo[1,2-b]pyridazin-2-yl)(4,4-difluorocyclohexyl)methyl)-1,2,5-oxadiazole-3-carboxamide] | < 4 | < 4 | –
COC[C@H](c1cnn2cc([C@H](COC(C)(C)C(F)(F)F)NC(=O)c3nonc3C)nc2c1)N1C[C@@H](C(F)(F)F)NC1=O [Example 9] | < 4 | < 4 | –
COC[C@H](c1cnn2cc([C@H](COC(C)(C)C(F)(F)F)NC(=O)[C@H]3C[C@@H]3C(F)(F)F)nc2c1)N1C[C@@H](C(F)(F)F)NC1=O (relative stereo) [Example 33, (1S*,2S*)—N—((R)-1-(7-((S)-2-Methoxy-1-((S)-2-oxo-4-(trifluoromethyl)imidazolidin-1-yl)ethyl)imidazo[1,2-b]pyridazin-2-yl)-2-(1,1,1-trifluoro-2-methylpropan-2-yl)oxy)ethyl)-2-(trifluoromethyl)cyclopropane-1-carboxamide] | < 4 | < 4 | –
Cc1nonc1C(=O)N[C@H](c1cn2ncc(CN3CCNC3=O)cc2n1)C1CCC(F)(F)CC1 [Example 1, (S)—N-((4,4-Difluorocyclohexyl)(7-((2-oxoimidazolidin-1-yl)methyl)imidazo[1,2-b]pyridazin-2-yl)methyl)-4-methyl-1,2,5-oxadiazole-3-carboxamide] | < 4 | 4 to 10 | –
Cc1nonc1C(=O)N[C@H](c1cn2ncc([C@@H](C3CC3)N3CC(CC(F)(F)F)NC3=O)cc2n1)C1CCC(F)(F)CC1 (single isomer, unassigned) [Example 19, N—((S)-(7-((R)-Cyclopropyl((R*)-2-oxo-4-(2,2,2-trifluoroethyl)imidazolidin-1-yl)methyl)imidazo[1,2-b]pyridazin-2-yl)(4,4-difluorocyclohexyl)methyl)-4-methyl-1,2,5-oxadiazole-3-carboxamide] | < 4 | < 4 | –
